In US12679822B2, “Alkenyl pyrimidine compound, preparation method therefor, and application thereof” (Hongyun Biotech Co., Ltd., priority 2020, dated 2026):

Legend:
Type in all cases: cell-based
[1] = target: BaF3 cell lines stably transfected with kinase EGFR Del/T790M/C797S (Homo sapiens, UniProt P00533, T790M/C797S, cells depend on it, form not given); experiment: Growth inhibition of BaF3 cell line stably transfected with kinase EGFR Del/T790M/C797S (MTS); conditions: 48 h, read-out: growth inhibitory activity IC50, Del/T790M/C797S
Description: (§1) Biological Activity Assay: Growth Inhibitory Activity of Compounds on Cell Lines Stably Transfected with Kinase
(§2) The activity of compounds against various mutants of kinase EGFR was evaluated by their effect of inhibiting growth of BaF3 cell lines stably transfected with kinase. The specific test method was given as follows:
(§3) 1) Culture medium: DMEM (Dulbecco's modified eagle medium) or RPMI 1640 (containing 10% fetal bovine serum, 100 μg/mL ampicillin, 100 μg/mL streptomycin).
(§4) 2) Reagent: MTS reaction solution (containing 2 mg/mL of MTS [3-(4,5-di methylthiazol-2-yl)-5-(3-carboxymethoxyphenyl)-2-(4-sulfophenyl)-2H-tetrazolium, inner Salt]; 100 μg/mL of PES (phenazine […])).
(§5) 3) Compound test: cells were incubated into a 96-well culture plate, the volume of cytosol was 90 μL, and then 10 μL of the compound at each gradient concentration was added. That is, the highest concentration was 10 μM, which was diluted stepwise by ⅓, and 8 concentration points were set in total; 0.1% DMSO (dimethyl sulfoxide) was contained in the system. The cell plate with uniformly mixed compound was cultured in a cell culture incubator (37° C.; 5% […]) for 48 h, then 20 μL of MTS reaction solution was added, uniformly mixed and incubated in the cell culture incubator (37° C.; 5% CO2) for 1-4 h; OD values at 490 nm were measured by a microplate reader (VARIOSKAN FLASH, Thermo). Two parallels were set in each group of experiments, with 0.1% (a final concentration) DMSO as a negative control, and a culture medium without cells and compounds as a blank control. The cell growth inhibition rate was calculated by the following formula: Cell growth inhibition rate %=1−(ODexperimental group−ODblank group)/(ODnegative group−ODblank group)×100%.
(§6) 4) IC50 calculation: The semi-inhibitory concentration of the compounds acting on cells was calculated using GradPad Prism 5 software according to the measured cell growth inhibition rate.

[2] = target: BaF3 cell lines stably transfected with kinase EGFR L858R (Homo sapiens, UniProt P00533, L858R, cells depend on it); experiment: Growth inhibition of BaF3 cell line stably transfected with kinase EGFR L858R (MTS); conditions: 48 h, read-out: growth inhibitory activity IC50, L858R
Description: as §1, §2, §3, §4, §5, §6

[3] = target: BaF3 cell lines stably transfected with kinase EGFR Del/T790M (Homo sapiens, UniProt P00533, T790M, cells depend on it, form not given); experiment: Growth inhibition of BaF3 cell line stably transfected with kinase EGFR Del/T790M (MTS); conditions: 48 h, read-out: growth inhibitory activity IC50, Del/T790M
Description: as §1, §2, §3, §4, §5, §6

[4] = target: BaF3 cell lines stably transfected with kinase EGFR Del (Homo sapiens, UniProt P00533, cells depend on it, form not given); experiment: Growth inhibition of BaF3 cell line stably transfected with kinase EGFR Del (MTS); conditions: 48 h, read-out: growth inhibitory activity IC50, Del
Description: as §1, §2, §3, §4, §5, §6

[5] = target: BaF3 cell lines stably transfected with kinase EGFR L858R/T790M (Homo sapiens, UniProt P00533, T790M/L858R, cells depend on it); experiment: Growth inhibition of BaF3 cell line stably transfected with kinase EGFR L858R/T790M (MTS); conditions: 48 h, read-out: growth inhibitory activity IC50, L858R/T790M
Description: as §1, §2, §3, §4, §5, §6

[6] = target: BaF3 cell lines stably transfected with kinase EGFR L858R/T790M/C797S (Homo sapiens, UniProt P00533, T790M/C797S/L858R, cells depend on it); experiment: Growth inhibition of BaF3 cell line stably transfected with kinase EGFR L858R/T790M/C797S (MTS); conditions: 48 h, read-out: growth inhibitory activity IC50, L858R/T790M/C797S
Description: as §1, §2, §3, §4, §5, §6

Measured: GI50

Sequence of BaF3 cell lines stably transfected with kinase EGFR L858R/T790M/C797S (P00533 whole entry T790M/C797S/L858R): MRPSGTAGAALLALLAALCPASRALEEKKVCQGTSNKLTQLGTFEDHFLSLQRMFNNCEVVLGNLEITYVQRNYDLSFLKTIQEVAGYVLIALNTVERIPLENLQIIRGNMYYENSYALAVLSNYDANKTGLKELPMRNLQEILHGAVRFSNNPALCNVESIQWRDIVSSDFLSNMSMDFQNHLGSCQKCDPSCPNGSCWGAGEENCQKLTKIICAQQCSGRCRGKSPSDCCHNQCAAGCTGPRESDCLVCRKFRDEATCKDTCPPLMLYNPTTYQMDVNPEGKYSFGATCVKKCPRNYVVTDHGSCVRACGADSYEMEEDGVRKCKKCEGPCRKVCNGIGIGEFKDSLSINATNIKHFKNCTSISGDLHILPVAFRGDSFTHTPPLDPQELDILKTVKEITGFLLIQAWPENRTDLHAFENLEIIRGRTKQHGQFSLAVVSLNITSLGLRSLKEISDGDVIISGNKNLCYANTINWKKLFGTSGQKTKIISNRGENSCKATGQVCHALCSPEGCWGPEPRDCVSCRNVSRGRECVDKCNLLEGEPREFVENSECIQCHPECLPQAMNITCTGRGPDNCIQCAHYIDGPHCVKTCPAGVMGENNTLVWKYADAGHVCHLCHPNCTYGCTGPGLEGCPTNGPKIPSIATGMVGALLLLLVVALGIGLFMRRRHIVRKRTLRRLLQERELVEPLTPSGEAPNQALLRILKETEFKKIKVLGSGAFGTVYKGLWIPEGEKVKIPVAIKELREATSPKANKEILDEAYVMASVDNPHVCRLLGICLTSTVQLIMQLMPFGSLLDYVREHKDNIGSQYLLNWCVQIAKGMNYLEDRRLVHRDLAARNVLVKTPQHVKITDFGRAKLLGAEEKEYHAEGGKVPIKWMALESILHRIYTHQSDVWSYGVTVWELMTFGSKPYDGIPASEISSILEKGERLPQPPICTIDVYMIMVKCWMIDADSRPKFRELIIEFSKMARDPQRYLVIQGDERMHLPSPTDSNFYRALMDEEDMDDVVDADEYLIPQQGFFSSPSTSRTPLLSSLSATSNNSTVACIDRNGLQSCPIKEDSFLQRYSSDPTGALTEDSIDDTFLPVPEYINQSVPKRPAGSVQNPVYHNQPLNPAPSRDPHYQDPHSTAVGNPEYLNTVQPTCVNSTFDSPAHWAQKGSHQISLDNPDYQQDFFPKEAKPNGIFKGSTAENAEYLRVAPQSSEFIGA
Sequence of BaF3 cell lines stably transfected with kinase EGFR Del/T790M (P00533 with tags, fused parts or gaps DEL746-750/T790M, form open): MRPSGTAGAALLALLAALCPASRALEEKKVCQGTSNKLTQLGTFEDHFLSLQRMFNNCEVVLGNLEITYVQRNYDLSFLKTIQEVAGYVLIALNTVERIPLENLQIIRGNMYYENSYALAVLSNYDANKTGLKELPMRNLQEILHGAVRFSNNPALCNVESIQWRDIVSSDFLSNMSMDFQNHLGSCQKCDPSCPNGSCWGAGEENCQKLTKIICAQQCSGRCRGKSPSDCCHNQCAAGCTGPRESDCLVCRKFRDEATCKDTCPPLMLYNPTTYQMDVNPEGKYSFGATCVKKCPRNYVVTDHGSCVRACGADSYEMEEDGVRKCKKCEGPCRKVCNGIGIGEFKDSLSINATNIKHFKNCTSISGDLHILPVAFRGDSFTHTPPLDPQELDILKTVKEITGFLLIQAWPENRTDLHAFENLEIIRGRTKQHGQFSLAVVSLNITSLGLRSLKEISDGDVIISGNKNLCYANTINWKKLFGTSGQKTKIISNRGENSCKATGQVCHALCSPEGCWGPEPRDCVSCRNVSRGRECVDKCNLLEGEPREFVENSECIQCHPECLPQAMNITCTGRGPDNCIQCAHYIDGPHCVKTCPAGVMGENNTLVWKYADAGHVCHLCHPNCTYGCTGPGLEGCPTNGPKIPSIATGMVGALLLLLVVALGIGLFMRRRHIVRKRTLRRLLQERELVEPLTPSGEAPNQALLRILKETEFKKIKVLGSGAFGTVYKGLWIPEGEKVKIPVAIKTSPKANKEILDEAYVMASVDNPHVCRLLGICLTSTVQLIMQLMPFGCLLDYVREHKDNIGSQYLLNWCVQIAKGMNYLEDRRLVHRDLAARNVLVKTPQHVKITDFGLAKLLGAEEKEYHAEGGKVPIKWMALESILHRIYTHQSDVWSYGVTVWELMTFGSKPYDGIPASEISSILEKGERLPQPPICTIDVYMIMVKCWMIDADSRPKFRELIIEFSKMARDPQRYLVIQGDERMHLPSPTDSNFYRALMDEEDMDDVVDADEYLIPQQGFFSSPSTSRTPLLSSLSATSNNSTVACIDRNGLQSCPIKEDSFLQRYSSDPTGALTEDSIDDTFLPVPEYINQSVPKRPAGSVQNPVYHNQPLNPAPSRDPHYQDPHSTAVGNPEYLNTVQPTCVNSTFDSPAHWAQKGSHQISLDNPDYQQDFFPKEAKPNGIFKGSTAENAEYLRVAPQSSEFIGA
Sequence of BaF3 cell lines stably transfected with kinase EGFR L858R/T790M (P00533 whole entry T790M/L858R): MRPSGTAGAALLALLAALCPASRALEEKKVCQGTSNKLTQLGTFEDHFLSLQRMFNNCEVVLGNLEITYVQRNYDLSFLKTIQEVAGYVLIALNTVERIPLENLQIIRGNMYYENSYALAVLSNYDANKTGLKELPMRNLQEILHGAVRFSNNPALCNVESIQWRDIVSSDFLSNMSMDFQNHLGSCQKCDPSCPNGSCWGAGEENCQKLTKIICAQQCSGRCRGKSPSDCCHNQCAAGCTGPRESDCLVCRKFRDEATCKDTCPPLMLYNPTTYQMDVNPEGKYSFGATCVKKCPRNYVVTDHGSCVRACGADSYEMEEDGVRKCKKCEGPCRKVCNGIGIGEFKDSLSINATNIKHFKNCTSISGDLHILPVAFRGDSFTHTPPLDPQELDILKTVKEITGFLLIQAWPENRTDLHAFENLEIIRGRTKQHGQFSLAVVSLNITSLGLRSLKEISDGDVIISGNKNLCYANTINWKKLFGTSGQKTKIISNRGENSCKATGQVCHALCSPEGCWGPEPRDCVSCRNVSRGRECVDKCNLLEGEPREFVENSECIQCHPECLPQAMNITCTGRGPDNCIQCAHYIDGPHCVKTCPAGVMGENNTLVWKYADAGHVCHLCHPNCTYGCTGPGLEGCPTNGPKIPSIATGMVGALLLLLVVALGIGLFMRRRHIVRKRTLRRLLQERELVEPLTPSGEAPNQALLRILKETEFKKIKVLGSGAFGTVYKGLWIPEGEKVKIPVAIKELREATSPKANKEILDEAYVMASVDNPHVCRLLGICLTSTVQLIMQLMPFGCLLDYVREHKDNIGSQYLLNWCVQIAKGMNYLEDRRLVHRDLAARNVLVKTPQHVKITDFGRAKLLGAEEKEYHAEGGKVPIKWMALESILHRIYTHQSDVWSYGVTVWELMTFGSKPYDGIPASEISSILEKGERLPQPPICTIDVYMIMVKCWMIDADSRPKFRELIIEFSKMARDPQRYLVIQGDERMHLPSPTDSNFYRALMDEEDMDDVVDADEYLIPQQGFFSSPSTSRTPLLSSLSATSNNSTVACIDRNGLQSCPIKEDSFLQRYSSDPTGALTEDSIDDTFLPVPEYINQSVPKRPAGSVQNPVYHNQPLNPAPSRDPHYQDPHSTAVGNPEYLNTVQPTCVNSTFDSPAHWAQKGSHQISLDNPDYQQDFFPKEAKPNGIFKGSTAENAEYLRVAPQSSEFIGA
Sequence of BaF3 cell lines stably transfected with kinase EGFR L858R (P00533 whole entry L858R): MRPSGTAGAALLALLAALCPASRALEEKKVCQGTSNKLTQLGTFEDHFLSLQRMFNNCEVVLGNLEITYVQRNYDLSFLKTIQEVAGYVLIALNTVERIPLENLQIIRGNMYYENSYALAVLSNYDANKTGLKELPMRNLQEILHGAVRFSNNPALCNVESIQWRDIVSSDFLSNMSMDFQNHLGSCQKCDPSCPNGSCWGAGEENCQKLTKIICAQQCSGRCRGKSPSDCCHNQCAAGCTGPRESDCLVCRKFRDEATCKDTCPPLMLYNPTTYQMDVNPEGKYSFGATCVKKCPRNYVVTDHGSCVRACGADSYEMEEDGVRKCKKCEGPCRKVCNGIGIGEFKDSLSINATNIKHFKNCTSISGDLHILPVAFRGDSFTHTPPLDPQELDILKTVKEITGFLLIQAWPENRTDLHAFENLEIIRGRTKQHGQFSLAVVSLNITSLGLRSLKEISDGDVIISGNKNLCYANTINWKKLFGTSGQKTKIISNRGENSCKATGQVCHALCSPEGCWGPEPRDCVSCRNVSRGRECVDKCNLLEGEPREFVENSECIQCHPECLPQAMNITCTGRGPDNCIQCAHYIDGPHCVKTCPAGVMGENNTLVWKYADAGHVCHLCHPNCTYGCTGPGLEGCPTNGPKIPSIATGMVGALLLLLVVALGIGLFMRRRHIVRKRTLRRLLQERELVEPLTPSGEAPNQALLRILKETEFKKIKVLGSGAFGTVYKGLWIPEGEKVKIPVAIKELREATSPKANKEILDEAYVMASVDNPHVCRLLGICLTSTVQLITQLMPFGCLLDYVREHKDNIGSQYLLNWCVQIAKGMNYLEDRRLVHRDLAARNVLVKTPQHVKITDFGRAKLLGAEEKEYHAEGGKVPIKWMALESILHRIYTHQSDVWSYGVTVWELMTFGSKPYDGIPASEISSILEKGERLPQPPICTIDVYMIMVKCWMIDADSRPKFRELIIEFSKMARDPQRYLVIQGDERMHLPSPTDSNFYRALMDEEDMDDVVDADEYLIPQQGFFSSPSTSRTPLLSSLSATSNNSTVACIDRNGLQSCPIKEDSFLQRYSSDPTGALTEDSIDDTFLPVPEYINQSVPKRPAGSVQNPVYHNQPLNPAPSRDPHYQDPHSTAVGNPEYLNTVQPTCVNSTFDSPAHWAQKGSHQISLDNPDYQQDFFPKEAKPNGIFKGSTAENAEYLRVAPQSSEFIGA

C=Cc1cnc(Nc2cn(CC)nc2C)nc1Nc1ccc2nccnc2c1N(C)S(C)(=O)=O [II-68]
500 to 2500 nM: [3] | [5]
50 to 500 nM: all other assays above

C=Cc1cnc(Nc2cc(C3CC3)c(N3CCC(N4CCN(C)CC4)CC3)cc2OC)nc1Nc1ccc2nccnc2c1P(C)(C)=O [Compound I-17]
50 to 500 nM: all assays above

C=Cc1cnc(Nc2cc(C(C)C)c(N3CCC(N4CCN(C)CC4)CC3)cc2OC)nc1Nc1ccc2nccnc2c1S(=O)(=O)C(C)C [III-20]
50 to 500 nM: [2] | [5]
500 to 2500 nM: all other assays above

C=Cc1cnc(Nc2cc(CC)c(N3CCC(N4CCN(C)CC4)CC3)cc2OC)nc1Nc1ccc2nccnc2c1P(C)(C)=O [Compound I-1]
≤ 50 nM: all assays above

C=Cc1cnc(Nc2cc(CC)c(N3CCC(N4CCN(C)CC4)CC3)cc2OC)nc1Nc1ccc2nccnc2c1S(=O)(=O)NC(C)C [IV-18]
500 to 2500 nM: [1] | [6]
50 to 500 nM: all other assays above

C=Cc1cnc(Nc2cc(CC)c(N3CCC(N(C)C)CC3)cc2OC)nc1Nc1ccc2nccnc2c1P(C)(C)=O [Compound I-2]
≤ 50 nM: all assays above

C=Cc1cnc(Nc2cc(CC)c(N3CCC(C(C)C)C3)cc2OC)nc1Nc1ccc2nccnc2c1P(C)(C)=O (stereo not drawn) [Compound I-3]
50 to 500 nM: [4] | [5]
≤ 50 nM: all other assays above

C=Cc1cnc(Nc2cc(CC)c(N3CCN(C)CC3)cc2OC)nc1Nc1ccc2nccnc2c1P(C)(C)=O [Compound I-4]
≤ 50 nM: all assays above

C=Cc1cnc(Nc2cc(F)c(N3CCC(N4CCN(C)CC4)CC3)c(F)c2)nc1Nc1ccc2nccnc2c1NS(C)(=O)=O [II-46]
≤ 50 nM: [5]
50 to 500 nM: all other assays above

C=Cc1cnc(Nc2cc(CC3CC3)c(N3CCC(N4CCN(C)CC4)CC3)cc2OC)nc1Nc1ccc2nccnc2c1NS(C)(=O)=O [II-37]
50 to 500 nM: [1] | [5]
≤ 50 nM: all other assays above

C=Cc1cnc(Nc2cc(CC)c(N3CCC(N(C)C)C3)cc2OC)nc1Nc1ccc2nccnc2c1S(C)(=O)=O (stereo not drawn) [III-3]
50 to 500 nM: [5]
500 to 2500 nM: all other assays above

C=Cc1cnc(Nc2cc(CC)c(N3CCC(N4CCN(C)CC4)CC3)cc2OC)nc1Nc1ccc2nccnc2c1N(C)S(=O)(=O)CC [II-9]
≤ 50 nM: [3] | [6]
50 to 500 nM: all other assays above

C=Cc1cnc(Nc2ccc3c(c2)CN(C)CC3)nc1Nc1ccc2nccnc2c1N(C)S(C)(=O)=O [II-77]
50 to 500 nM: [1]
≤ 50 nM: all other assays above

C=Cc1cnc(Nc2cc(CC)c(N3CCC(N(C)C)C3)cc2OC)nc1Nc1ccc2nccnc2c1N(C)S(C)(=O)=O (stereo not drawn) [II-3]
≤ 50 nM: all assays above

C=C(C)c1cnc(Nc2cc(C3CC3)c(N3CCC(N4CCN(C)CC4)CC3)cc2OC)nc1Nc1ccc2nccnc2c1N(C)S(C)(=O)=O [II-23]
50 to 500 nM: [1] | [6]
≤ 50 nM: all other assays above

C=Cc1cnc(Nc2cc(CC)c(N3CCN(C)CC3)cc2OC)nc1Nc1ccc2nccnc2c1NS(C)(=O)=O [II-41]
50 to 500 nM: [5]
≤ 50 nM: all other assays above

C=Cc1cnc(Nc2cc(CC)c(N3CCC(N4CCN(C)CC4)CC3)nc2OC)nc1Nc1ccc2nccnc2c1NS(C)(=O)=O [II-33]
≤ 50 nM: [2] | [4]
50 to 500 nM: all other assays above

CCc1cc(Nc2ncc(C3=CCCC3)c(Nc3ccc4nccnc4c3N(C)S(C)(=O)=O)n2)c(OC)cc1N1CCC(N2CCN(C)CC2)CC1 [II-27]
50 to 500 nM: [2]
≤ 50 nM: [4]
500 to 2500 nM: all other assays above

C=Cc1cnc(Nc2cc(CC)c(N3CCC(N(C)C)CC3)cc2OC)nc1Nc1ccc2nccnc2c1S(C)(=O)=O [III-2]
50 to 500 nM: [3] | [5] | [6]
500 to 2500 nM: all other assays above

C=Cc1cnc(Nc2cc(C3CC3)c(N3CCC(N4CCN(C)CC4)CC3)cc2OC)nc1Nc1ccc2nccnc2c1S(=O)(=O)NC [IV-7]
50 to 500 nM: all assays above

CCc1cc(Nc2ncc(C=C(C)C)c(Nc3ccc4nccnc4c3P(C)(C)=O)n2)c(OC)cc1N1CCC(N2CCN(C)CC2)CC1 [Compound I-10]
≤ 50 nM: [2] | [4]
500 to 2500 nM: [3]
50 to 500 nM: all other assays above

C=C(C)c1cnc(Nc2cc(C)c(N3CCC(N4CCN(C)CC4)CC3)nc2OC)nc1Nc1ccc2nccnc2c1P(C)(C)=O [Compound I-20]
50 to 500 nM: [2] | [3] | [5]
500 to 2500 nM: all other assays above

C=Cc1cnc(Nc2ccc(N3CCC(N4CCN(C)CC4)CC3)c(CC)c2)nc1Nc1ccc2nccnc2c1N(C)S(C)(=O)=O [II-20]
≤ 50 nM: all assays above

C=Cc1cnc(Nc2cc(CC)c(N3CCC4(CC3)CC(N(C)C)C4)cc2OC)nc1Nc1ccc2nccnc2c1N(C)S(C)(=O)=O [II-55]
50 to 500 nM: all assays above

C=Cc1cnc(Nc2cc(CC3CC3)c(N3CCC(N4CCN(C)CC4)CC3)cc2OC)nc1Nc1ccc2nccnc2c1S(=O)(=O)NC [IV-8]
500 to 2500 nM: [2]
50 to 500 nM: all other assays above

C=Cc1cnc(Nc2cc(CC3CC3)c(N3CCC(N4CCN(C)CC4)CC3)cc2OC)nc1Nc1ccc2nccnc2c1P(C)(C)=O [Compound I-7]
≤ 50 nM: all assays above

C=Cc1cnc(Nc2cc(C3CC3)c(N3CCC(N4CCN(C)CC4)CC3)cc2OC)nc1Nc1ccc2nccnc2c1S(=O)(=O)C(C)C [III-21]
50 to 500 nM: all assays above

C=Cc1cnc(Nc2cc(CC)c(N3CCC(N4CCN(C)CC4)CC3)cc2OC)nc1Nc1ccc2nccnc2c1N(C)S(C)(=O)=O [II-53]
≤ 50 nM: [1] | [6]
50 to 500 nM: all other assays above
